Assay results reported in patent US11014904B2, “1,2,4-triazine-3-amine derivative, preparation method therefor, and use thereof in medicine” (Jiangsu Hengrui Medicine Co., Ltd., priority 2017, dated 2021).

Columns and labels:
[1] = target: T1, adenosine A3 receptor (A3R) (Homo sapiens, UniProt P0DMS8); assay: Inhibition of the adenosine A3 receptor cAMP signaling pathway in CHO-K1/A3R cells (HTRF); assay type: cell-based; conditions: for IC50: CHO-K1/A3R cells, cAMP, forskolin 10 μM, 2Cl-IB-MECA 5 nM; for IC50 ratio (A3R/A2aR): selectivity A3R over A2aR
T1 construct: expressed in transfected cells; host or cells: CHO-K1
T1 sequence (P0DMS8 1-318): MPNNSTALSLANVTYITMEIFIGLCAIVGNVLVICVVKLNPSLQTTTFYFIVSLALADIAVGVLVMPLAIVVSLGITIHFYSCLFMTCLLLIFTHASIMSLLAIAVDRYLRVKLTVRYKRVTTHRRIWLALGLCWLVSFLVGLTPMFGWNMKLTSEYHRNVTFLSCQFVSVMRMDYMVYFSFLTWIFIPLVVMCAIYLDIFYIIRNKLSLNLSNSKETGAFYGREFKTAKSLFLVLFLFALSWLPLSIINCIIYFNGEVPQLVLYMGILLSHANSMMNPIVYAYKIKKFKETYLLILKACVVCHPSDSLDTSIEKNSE
Text: (§1) Determination of the inhibition activity of the compounds of the present invention on the adenosine A2a receptor (A2aR) cAMP signaling pathway, the adenosine A2b receptor (A2bR) cAMP signaling pathway, the adenosine A1 receptor (A1R) cAMP signaling pathway and the adenosine A3 receptor (A3R) cAMP signaling pathway.
(§2) The inhibition activity of the compounds of the present invention on the adenosine A2a receptor (A2aR) cAMP signaling pathway, the adenosine A2b receptor cAMP signaling pathway, the adenosine A1 receptor cAMP signaling pathway and the adenosine A3 receptor cAMP signaling pathway was determined by the following method. The experimental method is briefly described as follows:
2.4 Adenosine A3 Receptor
CHO-K1/A3R cells were cultured in DMEM/F12 medium containing 10% fetal bovine serum and 10 μg/ml puromycin. The cells were digested with the cell separation buffer during the experiment. The cells were resuspended in the balanced salt buffer containing 20 mM HEPES and 0.1% bovine serum albumin and counted, and the cell density was adjusted to 5×10^5 cells/ml. In the 384-well plate, each well was added with 12.5 μl of cell suspension, and 6.25 μl of test compound (4× concentration) formulated with the balanced salt buffer containing 20 mM HEPES, 0.1% bovine serum albumin, 54 μM rolipram and 2.7 U/ml adenosine deaminase, and the plate was incubated at room temperature for 30 minutes. Each well was then added with 6.25 μl of forskolin and 2Cl-IB-MECA (4× concentration) formulated with the balanced salt buffer containing 20 mM HEPES, 0.1% bovine serum albumin, 54 μM rolipram and 2.7 U/ml adenosine deaminase, and the plate was incubated at room temperature for 30 minutes. The final concentrations of the compounds were: 100000, 10000, 1000, 100, 10, 1, 0.1 and 0 nM. The final concentrations of forskolin was 10 μM. The final concentration of 2Cl-IB-MECA was 5 nM. Intracellular cAMP concentration was detected with the cAMP dynamic 2 kit. cAMP-d2 and Anti-cAMP-Eu-Cryptate were diluted respectively with the cAMP lysis buffer at a ratio of 1:4. Each well was added with 12.5 μl of diluted cAMP-d2, followed by addition of 12.5 μl of diluted Anti-cAMP-Eu-Cryptate, and the plate was incubated at room temperature in the dark for 1 hour. The HTRF signal values were read by the PHERAstar multi-function microplate reader.

[2] = target: T2, adenosine A2a receptor (A2aR) (Homo sapiens, UniProt P29274); assay: Inhibition of the adenosine A2a receptor cAMP signaling pathway in CHO-K1/A2aR cells (HTRF); assay type: cell-based; conditions: for IC50: CHO-K1/A2aR cells, cAMP, Table 1
T2 construct: expressed in transfected cells; host or cells: CHO-K1
T2 sequence (P29274 whole entry): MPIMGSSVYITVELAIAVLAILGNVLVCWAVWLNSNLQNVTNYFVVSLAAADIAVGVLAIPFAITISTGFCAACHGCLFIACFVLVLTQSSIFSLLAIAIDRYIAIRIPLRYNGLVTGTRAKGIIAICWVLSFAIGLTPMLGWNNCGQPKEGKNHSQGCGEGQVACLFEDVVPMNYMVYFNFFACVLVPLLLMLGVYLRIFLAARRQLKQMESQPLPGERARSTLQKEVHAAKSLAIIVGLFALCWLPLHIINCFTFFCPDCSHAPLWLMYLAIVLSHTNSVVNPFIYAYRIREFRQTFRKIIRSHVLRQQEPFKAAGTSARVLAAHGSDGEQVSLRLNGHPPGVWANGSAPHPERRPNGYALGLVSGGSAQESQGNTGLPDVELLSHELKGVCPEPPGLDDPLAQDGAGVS
Text: as §1, §2
2.1 Adenosine A2a receptor
CHO-K1/A2aR cells were cultured in DMEM/F12 medium containing 10% fetal bovine serum and 800 μg/ml bleomycin. The cells were digested with the cell separation buffer during the experiment. The cells were resuspended in the balanced salt buffer containing 20 mM HEPES and 0.1% bovine serum albumin and counted, and the cell density was adjusted to 10^6 cells/ml. In the 384-well plate, each well was added with 5 μl of cell suspension, and 2.5 μl of test compound (4× concentration) formulated with the balanced salt buffer containing 20 mM HEPES, 0.1% bovine serum albumin, 54 μM rolipram and 2.7 U/ml adenosine deaminase, and the plate was incubated at room temperature for 30 minutes. Each well was then added with 2.5 μl of […] (4× concentration) formulated with the balanced salt buffer containing 20 mM HEPES, 0.1% bovine serum albumin, 54 μM rolipram and 2.7 U/ml adenosine deaminase, and the plate was incubated at room temperature for 30 minutes. The final concentrations of the compounds were: 10000, 2000, 400, 80, 16, 3.2, 0.64, 0.128, 0.0256, 0.00512, and 0.001024 nM. The final concentration of […] was 20 nM. Intracellular cAMP concentration was detected with the cAMP dynamic 2 kit. cAMP-d2 and Anti-cAMP-Eu-Cryptate were diluted respectively with the cAMP lysis buffer at a ratio of 1:4. Each well was added with 5 μl of diluted cAMP-d2, followed by addition of 5 μl of diluted Anti-cAMP-Eu-Cryptate, and the plate was incubated at room temperature in the dark for 1 hour. The HTRF signal values were read by the PHERAstar multi-function microplate reader.

Compound	IC50 [1] [nM]	IC50 ratio (A3R/A2aR) [1]	IC50 ([2]; NECA 20 nM) [nM]	IC50 ([2]; 20 nM) [nM]	difference in inhibition activity on the adenosine A2a receptor versus Comparative Example 1 ([2]; compared with Comparative Example 1) [times]
Cc1ccnc2ccc(-c3nnc(N)nc3-c3ccc(F)cc3)cc12 [Example 18, 5-(4-Fluorophenyl)-6-(4-methylquinolin-6-yl)-1,2,4-triazin-3-amine]	> 10000	>10^4	0.2		
Nc1nnc(-c2cc(F)c3ncccc3c2)c(-c2ccccc2)n1 [Example 2, 6-(8-Fluoroquinolin-6-yl)-5-phenyl-1,2,4-triazin-3-amine]	> 10000	>10^4	0.6		
Cc1ncnc2ccc(-c3nnc(N)nc3-c3ccccc3)cc12 [Example 15, 6-(4-Methylquinazolin-6-yl)-5-phenyl-1,2,4-triazin-3-amine]	> 10000	>10^4	0.1		
Cc1ccnc2ccc(-c3nnc(N)nc3-c3ccccc3F)cc12 [Example 17, 5-(2-Fluorophenyl)-6-(4-methylquinolin-6-yl)-1,2,4-triazin-3-amine]	> 10000	>10^4	0.5		
Cc1ccnc2c(F)cc(-c3nnc(N)nc3-c3ccccc3)cc12 [Example 16, 6-(8-Fluoro-4-methylquinolin-6-yl)-5-phenyl-1,2,4-triazin-3-amine]	> 10000	>10^4	0.2		
Nc1nnc(-c2ccc3ncccc3c2)c(-c2ccccc2)n1 [Example 3, 5-Phenyl-6-(quinolin-6-yl)-1,2,4-triazin-3-amine]	> 10000	>10^4	0.7		225

Next, values leading:

IC50 [1] [nM]	IC50 ratio (A3R/A2aR) [1]	IC50 ([2]; NECA 20 nM) [nM]	IC50 ([2]; 20 nM) [nM]	difference in inhibition activity on the adenosine A2a receptor versus Comparative Example 1 ([2]; compared with Comparative Example 1) [times]	Compound
> 10000	>10^4	0.3			[2H]C([2H])([2H])c1ccnc2ccc(-c3nnc(N)nc3-c3ccc(F)cc3)cc12 [Example 22, 5-(4-Fluorophenyl)-6-[4-(trideuteromethyl)-6-quinolinyl]-1,2,4-triazin-3-amine]
> 10000	>10^4		0.4		Cc1ncnc2ccc(-c3nnc(N)nc3-c3ccc(F)cc3)cc12 [Example 19, 5-(4-Fluorophenyl)-6-(4-methylquinazolin-6-yl)-1,2,4-triazin-3-amine]
> 10000	>10^3	3.8			Cc1ccnc2c(F)cc(-c3nnc(N)nc3-c3ccccc3F)cc12 [Example 31, 6-(8-Fluoro-4-methylquinolin-6-yl)-5-(2-fluorophenyl)-1,2,4-triazin-3-amine]
> 10000	>10^3	1.5			Cc1ccnc2c(F)cc(-c3nnc(N)nc3-c3ccc(F)cc3)cc12 [Example 20, 6-(8-Fluoro-4-methylquinolin-6-yl)-5-(4-fluorophenyl)-1,2,4-triazin-3-amine]
> 10000	>10^3	1.2			Cc1ncnc2c(F)cc(-c3nnc(N)nc3-c3ccccc3)cc12 [Example 45, 6-(8-Fluoro-4-methylquinazolin-6-yl)-5-phenyl-1,2,4-triazin-3-amine]
> 10000	>10^4	0.8			CCc1ccnc2ccc(-c3nnc(N)nc3-c3ccc(F)cc3)cc12 [Example 44, 6-(4-Ethylquinolin-6-yl)-5-(4-fluorophenyl)-1,2,4-triazin-3-amine]
> 10000	>10^4		0.9		[2H]C([2H])([2H])c1ncnc2ccc(-c3nnc(N)nc3-c3ccc(F)cc3)cc12 [Example 52, 5-(4-Fluorophenyl)-6-(4-(methyl-d3)quinazolin-6-yl)-1,2,4-triazin-3-amine]
